Results: US9399631B2, “Polyphenol proteasome inhibitors, synthesis, and methods of use” (UNIVERSITY OF SOUTH FLORIDA, priority 2003, dated 2016)

Assays:
LNCaP cells = experiment: Western blot of proteasome target proteins in LNCaP cells; assay type: cell-based, human; conditions: for increase of IκB-α levels / increase of p27 levels / Bax protein levels / apoptosis-specific PARP cleavage: 10 μM; for increase of IκB-α levels / increase of p27 levels: 12 hour treatment; for Bax protein levels / apoptosis-specific PARP cleavage: 24 hours
Method in brief: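 LNCaP cells exposed to 25 μM (−)- or (+)-EGCG-amide for up to 9 h, or synthetic analogs for indicated hours. Whole-cell extracts (60 μg protein) probed by ECL Western blot for p27, IκB-α, Bax and polyubiquitinated proteins; p27 or IκB-α quantified as ratio to actin band intensity.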

purified 20S proteasome = purified 20S proteasome (UniProt Q9P992); experiment: Inhibition of chymotrypsin-like activity of purified 20S proteasome (source not stated); assay type: biochemical; parameters: other: 1 μM; other: 10 μM; conditions: 1 μM
purified 20S proteasome, sequence (Q9P992 whole entry): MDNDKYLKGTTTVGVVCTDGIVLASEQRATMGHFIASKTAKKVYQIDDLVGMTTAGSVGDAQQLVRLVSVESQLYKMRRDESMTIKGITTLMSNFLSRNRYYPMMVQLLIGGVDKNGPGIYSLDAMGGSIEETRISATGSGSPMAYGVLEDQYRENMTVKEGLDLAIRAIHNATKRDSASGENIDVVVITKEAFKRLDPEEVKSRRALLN
Method: Inhibition of purified 20S proteasome activity by natural or synthetic GTPs. Purified prokaryotic (0.5 μg) or eukaryotic (0.02 μg) 20S proteasome was incubated with 20 μM fluorogenic peptide substrate, Suc-Leu-Leu-Val-Tyr-AMC for 30 min at 37° C. in […] of assay buffer (50 mM Tris-HCl, pH 7.5), with or without a natural or synthetic tea polyphenol. After incubation, production of hydrolyzed 7-amido-4-methyl-coumarin (AMC) groups was measured using a multi-well plate VERSAFLUOR Fluorometer with an excitation filter of 380 nm and an emission filter of 460 nm (BIO-RAD), and a multi-well plate reader Wallac 1420 VICTORTM^2 with an excitation filter of 355 nm and an emission filter of 460 nm (EG&G WALLAC).

[1] = tested on: 26S proteasome in a Jurkat cell lysate; experiment: Chymotrypsin-like activity of 26S proteasome in Jurkat cell lysate; assay type: biochemical, human; conditions: 10 μM
Method: To determine the specificity of the synthetic GTP analogs, their effects were tested on the chymotrypsin-like and trypsin-like activities of the 26S proteasome in a Jurkat cell lysate. […] (+)-GCG at the same concentration inhibited ˜50% of the chymotrypsin-like activity. The potencies of (+)-EGCG and (+)-GCG were similar to those of their natural partners, respectively (FIG. 17A). […] Furthermore, none of the synthetic or control natural compounds could inhibit more than 15% of activity of a purified calpain enzyme (FIG. 17C). […] Values are mean triplicates and error bars denote standard deviations.

DU145 cells = experiment: Western blot of Bax and PARP in DU145 cells; assay type: cell-based, human; conditions: 10 μM, 24 hours
Method: Cell Culture, Cell Extract Preparation, and Western Blot Assay. Human leukemia Jurkat T and prostate cancer LNCaP cells were cultured in RPMI 1640 medium supplemented with 10% fetal calf serum, 100 units/ml of penicillin, and 100 μg/ml streptomycin. Human immortalized, non-transformed NK cells (YT cell line) (38) were cultured in RPMI 1640 supplemented with 1 mM MEM sodium pyruvate solution, 0.1 mM MEM non-essential amino acids solution, 10% fetal calf serum. 100 units/ml penicillin, and 100 μg/ml streptomycin. Normal (WI-38) and simian virus 40 (SV40)-transformed (VA-13) human fibroblasts were grown in Dulbecco's modified Eagle's medium supplemented with 10% fetal calf serum, 100 units/ml of penicillin and 100 μg/ml of streptomycin. All cells were maintained at 37° C. in a humidified incubator with an atmosphere of 5% CO2. A whole cell extract was prepared in accordance with An et al. (An, B. et al. Cell Death Differ, 1998, 5:1062-75). […] The ratio of p27 or IκB-α to the corresponding actin was determined by scanning intensities of the protein bands.
Exponentially growing LNCaP and DU-145 prostate cells were harvested and the levels of Bax protein was detected by Western blot analysis (FIG. 20A). […]

NK cells (YT cell line) = experiment: Western blot of proteasome target proteins in non-transformed NK cells (YT line); assay type: cell-based, human; conditions: treatment up to 12 hour
Method: Cell Culture, Cell Extract Preparation, and Western Blot Assay. Human leukemia Jurkat T and prostate cancer LNCaP cells were cultured in RPMI 1640 medium supplemented with 10% fetal calf serum, 100 units/ml of penicillin, and 100 μg/ml streptomycin. Human immortalized, non-transformed NK cells (YT cell line) (38) were cultured in RPMI 1640 supplemented with 1 mM MEM sodium pyruvate solution, 0.1 mM MEM non-essential amino acids solution, 10% fetal calf serum. 100 units/ml penicillin, and 100 μg/ml streptomycin. Normal (WI-38) and simian virus 40 (SV40)-transformed (VA-13) human fibroblasts were grown in Dulbecco's modified Eagle's medium supplemented with 10% fetal calf serum, 100 units/ml of penicillin and 100 μg/ml of streptomycin. All cells were maintained at 37° C. in a humidified incubator with an atmosphere of 5% CO2. A whole cell extract was prepared in accordance with An et al. (An, B. et al. Cell Death Differ, 1998, 5:1062-75). Briefly, cells were harvested, washed with PBS twice, and homogenized in a lysis buffer [50 mM Tris-HCl (pH 8.0), 5 mM EDTA, 150 mM NaCl, 0.5% NP-40, 0.5 mM phenylmethylsulfonyl fluoride, and 0.5 mM dithiothreitol] for 30 min at 4° C. Afterwards, lysates were centrifuged at 12,000×g for 15 min at 4° C., and the supernatants were collected as whole cell extracts. Equal amounts of protein extract (60 μg) were resolved by SDS-polyacrylamide gel electrophoresis and transferred to a nitrocellulose membrane using a Semi-Dry Transfer system (BIO-RAD, Hercules, Calif.). Jurkat T, LNCaP, or DU-145 cells were treated with various concentrations of synthetic or natural tea polyphenols for indicted hours. The enhanced chemiluminescence (ECL) Western blot analysis was then performed using specific antibodies to the proteins of interest (p^27kip, IκB-α, PARP, Bax or actin). The ratio of p27 or IκB-α to the corresponding actin was determined by scanning intensities of the protein bands. […]

Row | Structure (SMILES) | increase of IκB-α levels (LNCaP cells) | increase of p27 levels (LNCaP cells) | inhibition of proteasomal activity (purified 20S proteasome) | inhibition of chymotrypsin-like activity of 26S proteasome [1] | Bax protein levels (DU145 cells) | IκB-α expression (NK cells (YT cell line)) | p27 expression (NK cells (YT cell line)) | Bax protein levels (LNCaP cells) | apoptosis-specific PARP cleavage (LNCaP cells) | levels of Bax protein (LNCaP cells; 50 μM, 3 to 12 hours) | levels of p27, IκB-α and Bax (LNCaP cells; 25 μM, up to 9 hours)
1 | O=C(OC1Cc2c(O)cc(O)cc2OC1c1cc(O)c(O)c(O)c1)c1cc(O)c(O)c(O)c1 (single isomer, unassigned; (+)) [(+)-GCG] | 3.7 fold | 5.8 fold | 70% | ~50% | – | – | – | – | – | – | –
2 | O=C(O[C@@H]1Cc2c(O)cc(O)cc2O[C@@H]1c1cc(O)c(O)c(O)c1)c1cc(O)c(O)c(O)c1 [(−)-EGCG, (−)-epigallocatechin-3-gallate, reference compound] | – | – | – | – | neither (+)-EGCG nor (−)-EGCG was able to increase the levels of Bax protein | unchanged | no p27 expression was detected | significantly increased Bax protein levels | induced the apoptosis-specific PARP cleavage | increased only at 12 hours | –
3 | O=C(OC1Cc2c(O)cc(O)cc2OC1c1cc(O)c(O)c(O)c1)c1cc(O)c(O)c(O)c1 (single isomer, unassigned; (+)) [(+)-EGCG] | 2.6 fold | 3.1 fold | 86% | 76% | neither (+)-EGCG nor (−)-EGCG was able to increase the levels of Bax protein | – | – | significantly increased Bax protein levels | induced the apoptosis-specific PARP cleavage | – | –
4 | O=C(N[C@@H]1Cc2c(O)cc(O)cc2O[C@@H]1c1cc(O)c(O)c(O)c1)c1cc(O)c(O)c(O)c1 [(−)-EGCG-amide, (−)-[2R,3R]-N-[5,7-Dihydroxy-2-(3,4,5-trihydroxyphenyl)-chroman-3-yl]-3,4,5-trihydroxybenzamide] | – | – | – | – | – | unchanged | – | – | – | – | able to increase levels of p27, IκB-α and Bax by 3 hours
